Laboratory results from ChEMBL document CHEMBL1201862, “PubChem BioAssay data set” (2004).
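96-well plates; 48 h exposure; 5 concentrations. Endpoints by linear interpolation between flanking doses. Not reached: highest tested concentration assigned. GI50 is the concentration that inhibits growth by half.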 Activity calls are given as the source filed them. Rule as the data show it: active = GI50 up to about 1.1 µM and inactive = higher.

What was measured:
Experiment in all cases: NCI anticancer screen, dose series, 48 h
A498 = test system: A498
A549 = test system: A549
ACHN = test system: ACHN
CAKI-1 = test system: CAKI-1
CCRF-CEM = test system: CCRF-CEM
COLO 205 = test system: COLO 205
DU-145 = test system: DU-145
EKVX = test system: EKVX
HCC 2998 = test system: HCC 2998
HCT-116 = test system: HCT-116
HCT-15 = test system: HCT-15
HL-60 = test system: HL-60
HOP-62 = test system: HOP-62
HT-29 = test system: HT-29
Hs-578T = test system: Hs-578T
IGROV-1 = test system: IGROV-1
K562 = test system: K562
KM12 = test system: KM12
LOX IMVI = test system: LOX IMVI
M14 = test system: M14
MCF7 = test system: MCF7
MDA-MB-231 = test system: MDA-MB-231
MDA-MB-435 = test system: MDA-MB-435
MDA-N = test system: MDA-N
MOLT-4 = test system: MOLT-4
Malme-3M = test system: Malme-3M
NCI-H226 = test system: NCI-H226
NCI-H23 = test system: NCI-H23
NCI-H460 = test system: NCI-H460
NCI-H522 = test system: NCI-H522
NCI/ADR-RES = test system: NCI/ADR-RES
OVCAR-3 = test system: OVCAR-3
OVCAR-4 = test system: OVCAR-4
OVCAR-5 = test system: OVCAR-5
OVCAR-8 = test system: OVCAR-8
PC-3 = test system: PC-3
RPMI-8226 = test system: RPMI-8226
RXF 393 = test system: RXF 393
SF-268 = test system: SF-268
SF-295 = test system: SF-295
SF-539 = test system: SF-539
SK-MEL-28 = test system: SK-MEL-28
SK-MEL-2 = test system: SK-MEL-2
SK-MEL-5 = test system: SK-MEL-5
SK-OV-3 = test system: SK-OV-3
SN12C = test system: SN12C
SNB-19 = test system: SNB-19
SNB-75 = test system: SNB-75
SR = test system: SR
SW-620 = test system: SW-620
T47D = test system: T47D
TK-10 = test system: TK-10
U-251 = test system: U-251
UACC-62 = test system: UACC-62
UO-31 = test system: UO-31
786-0 = test system: 786-0
HOP-92 = test system: HOP-92
UACC-257 = test system: UACC-257

Measured: GI50

COc1ccc(N2C(=O)C3c4[nH]c5cc(C)ccc5c4C4CCC(C(C)(C)C)CC4C3C2=O)cc1 (configuration not stated)
> 10 µM: HCT-15
inactive: A498 5.21 µM | A549 > 10 µM | ACHN > 10 µM | CAKI-1 > 10 µM | CCRF-CEM > 10 µM | COLO 205 > 10 µM | DU-145 > 10 µM | EKVX 9.1 µM | HCC 2998 > 10 µM | HCT-116 > 10 µM | HL-60 > 10 µM | HOP-62 7.6 µM | HT-29 > 10 µM | Hs-578T 3.08 µM | IGROV-1 > 10 µM | K562 > 10 µM | KM12 > 10 µM | LOX IMVI 7.24 µM | M14 > 10 µM | MCF7 > 10 µM | MDA-MB-231 > 10 µM | MDA-MB-435 > 10 µM | MDA-N > 10 µM | MOLT-4 > 10 µM | Malme-3M > 10 µM | NCI-H226 > 10 µM | NCI-H23 > 10 µM | NCI-H460 7.62 µM | NCI-H522 8.63 µM | NCI/ADR-RES 3.66 µM | OVCAR-3 > 10 µM | OVCAR-4 4.36 µM | OVCAR-5 > 10 µM | OVCAR-8 4.88 µM | PC-3 5.24 µM | RPMI-8226 > 10 µM | RXF 393 > 10 µM | SF-268 5.75 µM | SF-295 7.08 µM | SF-539 4.19 µM | SK-MEL-28 > 10 µM | SK-MEL-2 > 10 µM | SK-MEL-5 > 10 µM | SK-OV-3 > 10 µM | SN12C > 10 µM | SNB-19 > 10 µM | SNB-75 2.59 µM | SR > 10 µM | SW-620 > 10 µM | T47D > 10 µM | TK-10 > 10 µM | U-251 5.43 µM | UACC-62 6.19 µM | UO-31 > 10 µM

CC(C)(/C=N/O)/[N+]([O-])=C/c1ccccc1
> 100 µM: HCT-15
inactive: 786-0 > 100 µM | A549 > 100 µM | ACHN > 100 µM | CAKI-1 > 100 µM | COLO 205 > 100 µM | DU-145 > 100 µM | EKVX > 100 µM | HCC 2998 > 100 µM | HCT-116 > 100 µM | HOP-62 > 100 µM | HOP-92 > 100 µM | HT-29 > 100 µM | Hs-578T > 100 µM | IGROV-1 > 100 µM | KM12 > 100 µM | LOX IMVI > 100 µM | M14 > 100 µM | MCF7 > 100 µM | MDA-MB-231 > 100 µM | MDA-MB-435 > 100 µM | MDA-N > 100 µM | MOLT-4 > 100 µM | Malme-3M > 100 µM | NCI-H226 > 100 µM | NCI-H23 > 100 µM | NCI-H460 > 100 µM | NCI/ADR-RES > 100 µM | OVCAR-3 > 100 µM | OVCAR-4 > 100 µM | OVCAR-5 > 100 µM | OVCAR-8 > 100 µM | PC-3 > 100 µM | RPMI-8226 > 100 µM | RXF 393 > 100 µM | SF-268 > 100 µM | SF-295 > 100 µM | SF-539 > 100 µM | SK-MEL-28 > 100 µM | SK-MEL-2 > 100 µM | SK-MEL-5 > 100 µM | SK-OV-3 > 100 µM | SN12C > 100 µM | SNB-19 > 100 µM | SNB-75 > 100 µM | SW-620 > 100 µM | T47D > 100 µM | TK-10 > 100 µM | U-251 > 100 µM | UACC-257 > 100 µM | UACC-62 > 100 µM | UO-31 > 100 µM
